Data published in paper PMC8708872, “Discovery of a Novel Template, 7-Substituted 7-Deaza-4′-Thioadenosine Derivatives as Multi-Kinase Inhibitors” (Pharmaceuticals, 2021).

Legend:
KM12 = experiment: Antiproliferative activity against KM12; type: cell-based; conditions: Homo sapiens, colon cancer cell line highly expressing NTRK1/2/3 and DYRK3, read-out: IC50 cell growth of KM12
[1] = Metabolic stability in human liver microsomes; type: in vitro ADME; conditions: % remaining during 30 min, 1 μM
TRKA = target: T1, TRKA (Homo sapiens, UniProt P04629); experiment: Kinase inhibition profile, KINOMEscan 11-point dose response; type: binding
T1 construct: purchased Eurofins DiscoverX Corporation
T1 sequence (P04629 33-796): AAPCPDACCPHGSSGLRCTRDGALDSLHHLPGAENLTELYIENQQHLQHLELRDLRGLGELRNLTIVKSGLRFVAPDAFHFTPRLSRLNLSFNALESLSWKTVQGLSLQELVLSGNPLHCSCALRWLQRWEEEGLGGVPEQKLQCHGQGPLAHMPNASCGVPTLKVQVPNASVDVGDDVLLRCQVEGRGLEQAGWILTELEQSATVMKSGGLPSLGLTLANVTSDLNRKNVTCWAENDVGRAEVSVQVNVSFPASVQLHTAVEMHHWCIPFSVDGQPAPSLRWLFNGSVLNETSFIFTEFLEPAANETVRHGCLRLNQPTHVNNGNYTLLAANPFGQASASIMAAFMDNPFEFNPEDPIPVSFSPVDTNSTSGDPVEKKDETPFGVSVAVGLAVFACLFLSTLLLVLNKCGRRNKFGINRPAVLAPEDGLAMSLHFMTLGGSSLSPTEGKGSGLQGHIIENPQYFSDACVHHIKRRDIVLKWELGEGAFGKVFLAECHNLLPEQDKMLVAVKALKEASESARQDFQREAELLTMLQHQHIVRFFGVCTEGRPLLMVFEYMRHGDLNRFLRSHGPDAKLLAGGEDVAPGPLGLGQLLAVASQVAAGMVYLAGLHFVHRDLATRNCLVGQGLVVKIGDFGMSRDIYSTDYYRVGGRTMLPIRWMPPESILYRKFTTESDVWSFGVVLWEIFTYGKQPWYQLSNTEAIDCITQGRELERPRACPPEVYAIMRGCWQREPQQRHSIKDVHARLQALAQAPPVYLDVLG

CK1δ = target: T2, CK1δ (Homo sapiens, UniProt P48730); experiment: as above; type: binding
T2 construct: purchased Eurofins DiscoverX Corporation
T2 sequence (P48730 whole entry): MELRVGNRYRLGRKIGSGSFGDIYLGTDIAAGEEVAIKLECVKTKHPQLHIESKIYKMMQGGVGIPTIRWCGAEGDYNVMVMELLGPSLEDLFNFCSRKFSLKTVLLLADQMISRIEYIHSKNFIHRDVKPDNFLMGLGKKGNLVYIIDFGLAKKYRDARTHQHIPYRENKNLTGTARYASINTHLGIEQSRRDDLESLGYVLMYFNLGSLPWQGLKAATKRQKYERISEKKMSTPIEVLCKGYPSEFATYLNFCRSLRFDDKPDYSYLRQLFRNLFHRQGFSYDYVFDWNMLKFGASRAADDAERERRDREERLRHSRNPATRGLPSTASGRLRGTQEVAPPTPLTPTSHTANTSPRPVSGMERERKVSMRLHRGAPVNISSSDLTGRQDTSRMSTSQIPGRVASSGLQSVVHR

DYRK1A = target: T3, DYRK1A (Homo sapiens, UniProt Q13627); experiment: as above; type: binding
T3 construct: purchased Eurofins DiscoverX Corporation

Kinome scan = type: binding; conditions: 1000 nM, ZAP70 (Entrez gene symbol printed STK32C)
Procedure: (§1) The kinome scan assays were carried out at Eurofins DiscoverX Corporation. For kinome scan profiling of compound 1g, it was screened at 1μM against 96 kinases (N = 2 independent experiments). The results for binding interactions are reported as % inhibition, where higher values indicate strong affinity; see the Supporting Information, Table S1 for full kinome profile.

[2] = target: T4, ABL1(T315I)-phosphorylated (Homo sapiens, UniProt P00519, T315I); experiment: Kinome scan; type: binding; conditions: 1000 nM
T4 construct: purchased Eurofins DiscoverX Corporation
Procedure: as §1

AURKB = target: T5, AURKB (Homo sapiens, UniProt Q96GD4); experiment: Kinome scan; type: binding; conditions: 1000 nM
T5 construct: purchased Eurofins DiscoverX Corporation
Procedure: as §1

BMPR2 = target: T6, BMPR2 (Homo sapiens, UniProt Q13873); experiment: Kinome scan; type: binding; conditions: 1000 nM
T6 construct: purchased Eurofins DiscoverX Corporation
Procedure: as §1

BRAF(V600E) = target: T7, BRAF(V600E) (Homo sapiens, UniProt P15056, V600E); experiment: Kinome scan; type: binding; conditions: 1000 nM
T7 construct: purchased Eurofins DiscoverX Corporation
Procedure: as §1

CHEK1 = target: T8, CHEK1 (Homo sapiens, UniProt O14757); experiment: Kinome scan; type: binding; conditions: 1000 nM
T8 construct: purchased Eurofins DiscoverX Corporation
T8 sequence (O14757 whole entry): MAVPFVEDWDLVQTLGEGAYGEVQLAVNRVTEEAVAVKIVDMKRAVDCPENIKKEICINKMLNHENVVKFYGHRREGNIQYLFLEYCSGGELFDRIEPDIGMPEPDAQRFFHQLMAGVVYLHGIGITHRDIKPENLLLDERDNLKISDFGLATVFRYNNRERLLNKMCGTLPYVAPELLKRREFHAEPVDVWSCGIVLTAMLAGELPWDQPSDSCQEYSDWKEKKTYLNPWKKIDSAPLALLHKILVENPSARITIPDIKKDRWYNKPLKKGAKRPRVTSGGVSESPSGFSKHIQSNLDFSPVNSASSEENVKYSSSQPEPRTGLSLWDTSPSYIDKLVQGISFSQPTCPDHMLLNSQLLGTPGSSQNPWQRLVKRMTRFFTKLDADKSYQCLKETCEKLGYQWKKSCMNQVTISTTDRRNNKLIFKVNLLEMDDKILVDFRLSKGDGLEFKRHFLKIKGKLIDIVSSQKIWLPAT
Procedure: as §1

EGFR = target: T9, EGFR (Homo sapiens, UniProt P00533); experiment: Kinome scan; type: binding; conditions: 1000 nM
T9 construct: purchased Eurofins DiscoverX Corporation
Procedure: as §1

ERBB2 = target: T10, ERBB2 (Homo sapiens, UniProt P04626); experiment: Kinome scan; type: binding; conditions: 1000 nM
T10 construct: purchased Eurofins DiscoverX Corporation
Procedure: as §1

ERBB4 = target: T11, ERBB4 (Homo sapiens, UniProt Q15303); experiment: Kinome scan; type: binding; conditions: 1000 nM
T11 construct: purchased Eurofins DiscoverX Corporation
Procedure: as §1

ERK1 = target: T12, ERK1 (Homo sapiens, UniProt P27361); experiment: Kinome scan; type: binding; conditions: 1000 nM
T12 construct: purchased Eurofins DiscoverX Corporation
Procedure: as §1

FAK = target: T13, FAK (Homo sapiens, UniProt Q05397); experiment: Kinome scan; type: binding; conditions: 1000 nM
T13 construct: purchased Eurofins DiscoverX Corporation
Procedure: as §1

FGFR3 = target: T14, FGFR3 (Homo sapiens, UniProt P22607); experiment: Kinome scan; type: binding; conditions: 1000 nM
T14 construct: purchased Eurofins DiscoverX Corporation
Procedure: as §1

FLT3 = target: T15, FLT3 (Homo sapiens, UniProt P36888); experiment: Kinome scan; type: binding; conditions: 1000 nM
T15 construct: purchased Eurofins DiscoverX Corporation
Procedure: as §1

IGF1R = target: T16, IGF1R (Homo sapiens, UniProt P08069); experiment: Kinome scan; type: binding; conditions: 1000 nM
T16 construct: purchased Eurofins DiscoverX Corporation
Procedure: as §1

INSR = target: T17, INSR (Homo sapiens, UniProt P06213); experiment: Kinome scan; type: binding; conditions: 1000 nM
T17 construct: purchased Eurofins DiscoverX Corporation
T17 sequence (P06213 28-1382): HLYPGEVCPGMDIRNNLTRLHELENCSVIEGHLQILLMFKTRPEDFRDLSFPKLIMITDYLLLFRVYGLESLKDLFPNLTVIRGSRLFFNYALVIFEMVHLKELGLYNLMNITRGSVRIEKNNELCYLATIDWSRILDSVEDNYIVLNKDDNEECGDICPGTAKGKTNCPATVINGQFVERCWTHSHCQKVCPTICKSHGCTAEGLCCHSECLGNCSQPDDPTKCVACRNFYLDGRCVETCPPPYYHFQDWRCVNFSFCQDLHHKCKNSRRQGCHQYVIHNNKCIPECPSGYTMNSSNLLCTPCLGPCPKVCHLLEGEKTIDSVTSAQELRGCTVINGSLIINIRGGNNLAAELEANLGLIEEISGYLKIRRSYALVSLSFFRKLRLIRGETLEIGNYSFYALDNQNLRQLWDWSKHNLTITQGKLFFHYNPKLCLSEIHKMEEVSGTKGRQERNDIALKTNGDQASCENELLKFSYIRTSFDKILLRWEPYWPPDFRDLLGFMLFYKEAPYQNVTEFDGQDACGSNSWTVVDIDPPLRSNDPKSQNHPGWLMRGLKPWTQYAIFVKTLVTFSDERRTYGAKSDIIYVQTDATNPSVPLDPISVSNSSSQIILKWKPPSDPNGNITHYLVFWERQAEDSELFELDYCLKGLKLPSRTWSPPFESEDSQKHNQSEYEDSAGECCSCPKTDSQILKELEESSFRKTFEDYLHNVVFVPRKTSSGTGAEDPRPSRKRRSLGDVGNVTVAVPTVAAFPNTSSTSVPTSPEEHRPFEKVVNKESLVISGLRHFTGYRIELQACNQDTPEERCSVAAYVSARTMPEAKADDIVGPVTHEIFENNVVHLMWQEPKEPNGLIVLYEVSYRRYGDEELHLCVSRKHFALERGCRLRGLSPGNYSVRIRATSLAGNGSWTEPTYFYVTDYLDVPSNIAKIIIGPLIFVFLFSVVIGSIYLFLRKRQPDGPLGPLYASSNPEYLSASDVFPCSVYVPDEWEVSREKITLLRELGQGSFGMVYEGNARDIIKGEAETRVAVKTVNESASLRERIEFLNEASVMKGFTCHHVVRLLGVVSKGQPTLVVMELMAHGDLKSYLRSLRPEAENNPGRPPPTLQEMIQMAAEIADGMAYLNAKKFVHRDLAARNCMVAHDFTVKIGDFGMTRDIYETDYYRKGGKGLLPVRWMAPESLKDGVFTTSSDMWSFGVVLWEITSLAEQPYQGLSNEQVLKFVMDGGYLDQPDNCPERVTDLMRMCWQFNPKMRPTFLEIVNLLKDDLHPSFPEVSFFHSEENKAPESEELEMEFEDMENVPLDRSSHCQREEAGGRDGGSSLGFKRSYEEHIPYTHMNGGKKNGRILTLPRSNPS
Procedure: as §1

[3] = target: T18, JAK2(JH1domain-catalytic) (Homo sapiens, UniProt O60674); experiment: Kinome scan; type: binding; conditions: 1000 nM
T18 construct: JAK2(JH1domain-catalytic); purchased Eurofins DiscoverX Corporation
T18 sequence (O60674 849-1124 limits assumed): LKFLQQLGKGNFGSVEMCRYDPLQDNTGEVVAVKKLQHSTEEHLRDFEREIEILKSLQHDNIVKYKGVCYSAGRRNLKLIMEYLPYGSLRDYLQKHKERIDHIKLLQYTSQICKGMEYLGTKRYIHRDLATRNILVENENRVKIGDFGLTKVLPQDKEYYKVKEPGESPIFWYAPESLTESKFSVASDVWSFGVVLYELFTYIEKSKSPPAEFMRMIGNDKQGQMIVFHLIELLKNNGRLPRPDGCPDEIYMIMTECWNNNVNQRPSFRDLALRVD
Procedure: as §1

JNK3 = target: T19, JNK3 (Homo sapiens, UniProt P53779); experiment: Kinome scan; type: binding; conditions: 1000 nM
T19 construct: purchased Eurofins DiscoverX Corporation
Procedure: as §1

KIT(D816V) = target: T20, KIT(D816V) (Homo sapiens, UniProt P10721, D816V); experiment: Kinome scan; type: binding; conditions: 1000 nM
T20 construct: purchased Eurofins DiscoverX Corporation
Procedure: as §1

MEK1 = target: T21, MEK1 (Homo sapiens, UniProt Q02750); experiment: Kinome scan; type: binding; conditions: 1000 nM
T21 construct: purchased Eurofins DiscoverX Corporation
Procedure: as §1

MKNK2 = target: T22, MKNK2 (Homo sapiens, UniProt Q9HBH9); experiment: Kinome scan; type: binding; conditions: 1000 nM
T22 construct: purchased Eurofins DiscoverX Corporation
Procedure: as §1

MLK1 = target: T23, MLK1 (Homo sapiens, UniProt P80192); experiment: Kinome scan; type: binding; conditions: 1000 nM
T23 construct: purchased Eurofins DiscoverX Corporation
Procedure: as §1

PAK4 = target: T24, PAK4 (Homo sapiens, UniProt O96013); experiment: Kinome scan; type: binding; conditions: 1000 nM
T24 construct: purchased Eurofins DiscoverX Corporation
Procedure: as §1

PIK3C2B = target: T25, PIK3C2B (Homo sapiens, UniProt O00750); experiment: Kinome scan; type: binding; conditions: 1000 nM
T25 construct: purchased Eurofins DiscoverX Corporation
Procedure: as §1

PIM1 = target: T26, PIM1 (Homo sapiens, UniProt P11309); experiment: Kinome scan; type: binding; conditions: 1000 nM
T26 construct: purchased Eurofins DiscoverX Corporation
Procedure: as §1

PIM3 = target: T27, PIM3 (Homo sapiens, UniProt Q86V86); experiment: Kinome scan; type: binding; conditions: 1000 nM
T27 construct: purchased Eurofins DiscoverX Corporation
Procedure: as §1

RET = target: T28, RET (Homo sapiens, UniProt P07949); experiment: Kinome scan; type: binding; conditions: 1000 nM
T28 construct: purchased Eurofins DiscoverX Corporation
T28 sequence (P07949 29-1114): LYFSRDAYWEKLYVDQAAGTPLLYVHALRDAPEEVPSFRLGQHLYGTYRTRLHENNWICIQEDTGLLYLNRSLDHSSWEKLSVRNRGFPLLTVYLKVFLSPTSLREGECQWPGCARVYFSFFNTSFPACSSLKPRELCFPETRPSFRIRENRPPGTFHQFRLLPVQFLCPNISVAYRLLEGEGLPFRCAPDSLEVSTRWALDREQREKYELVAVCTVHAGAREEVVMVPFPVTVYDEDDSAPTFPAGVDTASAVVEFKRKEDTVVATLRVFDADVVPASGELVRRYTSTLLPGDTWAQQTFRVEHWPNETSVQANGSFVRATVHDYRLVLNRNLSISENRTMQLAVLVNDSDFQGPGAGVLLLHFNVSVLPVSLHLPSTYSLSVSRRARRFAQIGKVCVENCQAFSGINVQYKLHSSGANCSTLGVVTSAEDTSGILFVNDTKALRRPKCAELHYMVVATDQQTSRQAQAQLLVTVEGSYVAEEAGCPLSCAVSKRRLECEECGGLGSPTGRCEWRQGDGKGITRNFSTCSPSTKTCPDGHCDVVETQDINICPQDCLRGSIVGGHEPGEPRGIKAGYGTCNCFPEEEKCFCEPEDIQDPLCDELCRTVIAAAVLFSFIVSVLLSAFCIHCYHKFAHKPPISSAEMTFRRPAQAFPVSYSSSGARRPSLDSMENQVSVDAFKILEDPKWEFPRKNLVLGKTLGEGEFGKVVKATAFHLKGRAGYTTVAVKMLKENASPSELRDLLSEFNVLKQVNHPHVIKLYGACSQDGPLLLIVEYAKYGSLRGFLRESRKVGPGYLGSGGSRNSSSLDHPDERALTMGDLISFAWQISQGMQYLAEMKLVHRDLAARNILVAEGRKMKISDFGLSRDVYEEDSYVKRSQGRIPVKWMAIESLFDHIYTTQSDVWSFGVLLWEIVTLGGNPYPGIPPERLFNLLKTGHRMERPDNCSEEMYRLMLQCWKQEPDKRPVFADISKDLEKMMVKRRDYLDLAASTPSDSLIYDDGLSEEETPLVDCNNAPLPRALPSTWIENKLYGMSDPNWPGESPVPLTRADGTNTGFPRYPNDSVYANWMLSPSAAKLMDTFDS
Procedure: as §1

SNARK = target: T29, SNARK (Homo sapiens, UniProt Q9H093); experiment: Kinome scan; type: binding; conditions: 1000 nM
T29 construct: purchased Eurofins DiscoverX Corporation
T29 sequence (Q9H093 whole entry): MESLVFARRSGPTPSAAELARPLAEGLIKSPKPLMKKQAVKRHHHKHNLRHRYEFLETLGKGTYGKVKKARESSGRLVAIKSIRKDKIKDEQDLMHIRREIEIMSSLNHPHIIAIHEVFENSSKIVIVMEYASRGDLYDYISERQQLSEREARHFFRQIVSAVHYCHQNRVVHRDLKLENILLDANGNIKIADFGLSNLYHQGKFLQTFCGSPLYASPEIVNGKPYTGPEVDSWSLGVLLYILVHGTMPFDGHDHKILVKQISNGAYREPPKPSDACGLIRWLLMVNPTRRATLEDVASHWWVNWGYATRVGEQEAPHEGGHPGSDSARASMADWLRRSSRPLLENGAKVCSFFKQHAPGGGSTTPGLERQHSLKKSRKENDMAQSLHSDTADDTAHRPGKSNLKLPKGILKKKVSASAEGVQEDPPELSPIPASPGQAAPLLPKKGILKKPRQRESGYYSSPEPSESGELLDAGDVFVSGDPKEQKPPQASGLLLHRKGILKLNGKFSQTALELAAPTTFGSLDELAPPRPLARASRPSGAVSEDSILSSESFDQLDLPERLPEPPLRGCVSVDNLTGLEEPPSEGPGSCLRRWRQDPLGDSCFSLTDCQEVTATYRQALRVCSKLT
Procedure: as §1

ULK2 = target: T30, ULK2 (Homo sapiens, UniProt Q8IYT8); experiment: Kinome scan; type: binding; conditions: 1000 nM
T30 construct: purchased Eurofins DiscoverX Corporation
Procedure: as §1

[4] = 11-point 3-fold serial dilution

## C#Cc1cn([C@@H]2S[C@H](CO)[C@@H](O)[C@H]2O)c2ncnc(N)c12 [Compound 1g, (2R,3R,4S,5R)-2-(4-Amino-5-ethynyl-7H-pyrrolo[2,3-d]pyrimidin-7-yl)-5-(hydroxymethyl)tetrahydrothiophene-3,4-diol]
KM12
  IC50: 70 nM
[1]
  Metabolic Stability (%): 82.3%
TRKA; [4]
  IC50: 148 nM
TRKA; by Cheng-Prusoff equation
  Ki: 296 nM
CK1δ; [4]
  IC50: 80 nM
CK1δ; by Cheng-Prusoff equation
  Ki: 80 nM
DYRK1A; [4]
  IC50: 43 nM
DYRK1A; by Cheng-Prusoff equation
  Ki: 86 nM
Kinome scan
  % inhibition: 0.0%
[2]
  inhibition at 1 µM: 65%
AURKB
  inhibition at 1 µM: 0%
BMPR2
  inhibition at 1 µM: 1%
BRAF(V600E)
  inhibition at 1 µM: 0%
CHEK1
  inhibition at 1 µM: 0%
EGFR
  inhibition at 1 µM: 0%
ERBB2
  inhibition at 1 µM: 15%
ERBB4
  inhibition at 1 µM: 3%
ERK1
  inhibition at 1 µM: 4%
FAK
  inhibition at 1 µM: 0%
FGFR3
  inhibition at 1 µM: 10%
FLT3
  inhibition at 1 µM: 27%
IGF1R
  inhibition at 1 µM: 7%
INSR
  inhibition at 1 µM: 5%
[3]
  inhibition at 1 µM: 35%
JNK3
  inhibition at 1 µM: 13%
KIT(D816V)
  inhibition at 1 µM: 22%
MEK1
  inhibition at 1 µM: 74%
MKNK2
  inhibition at 1 µM: 62%
MLK1
  inhibition at 1 µM: 7%
PAK4
  inhibition at 1 µM: 50%
PIK3C2B
  inhibition at 1 µM: 1%
PIM1
  inhibition at 1 µM: 37%
PIM3
  inhibition at 1 µM: 25%
RET
  inhibition at 1 µM: 11%
SNARK
  inhibition at 1 µM: 0%
ULK2
  inhibition at 1 µM: 0%
